What was measured:
Rac1 [1] = assay: Rac1 activation assay (G-LISA); format: cell-based; details: cells incubated 2 minutes at 1 and 10 μg/mL
Protocol: Cell cultures were incubated with each tested compound for 2 minutes at concentrations of 1 and 10 μg/mL, after which the cells were tested for Rac1 activation using a G-LISA activation assay. The cells were lysed and the lysates introduced into wells containing Rac-GTP-binding protein, then sequentially incubated with anti-Rac1 antibody and a horseradish peroxidase-linked secondary antibody. The amount of horseradish peroxidase was then quantitated to evaluate the Rac1 activation potency of each compound studied.

[2] = molecular target: T1, PTPRS catalytic domains (D1D2) (Homo sapiens, UniProt Q13332); assay: In vitro phosphatase assay (modified Malachite Green Assay); format: biochemical; details: for IC50: 50 nM PTPRS, 100 uM Tyr Phosphopeptide, 15 min preincubation
T1 construct: The two interacellular catalytic domains (D1D2) of PTPRS were cloned into a pET28a vector; made in house; host or cells: E. coli BL21
T1 sequence (Q13332 1304-1948 limits assumed): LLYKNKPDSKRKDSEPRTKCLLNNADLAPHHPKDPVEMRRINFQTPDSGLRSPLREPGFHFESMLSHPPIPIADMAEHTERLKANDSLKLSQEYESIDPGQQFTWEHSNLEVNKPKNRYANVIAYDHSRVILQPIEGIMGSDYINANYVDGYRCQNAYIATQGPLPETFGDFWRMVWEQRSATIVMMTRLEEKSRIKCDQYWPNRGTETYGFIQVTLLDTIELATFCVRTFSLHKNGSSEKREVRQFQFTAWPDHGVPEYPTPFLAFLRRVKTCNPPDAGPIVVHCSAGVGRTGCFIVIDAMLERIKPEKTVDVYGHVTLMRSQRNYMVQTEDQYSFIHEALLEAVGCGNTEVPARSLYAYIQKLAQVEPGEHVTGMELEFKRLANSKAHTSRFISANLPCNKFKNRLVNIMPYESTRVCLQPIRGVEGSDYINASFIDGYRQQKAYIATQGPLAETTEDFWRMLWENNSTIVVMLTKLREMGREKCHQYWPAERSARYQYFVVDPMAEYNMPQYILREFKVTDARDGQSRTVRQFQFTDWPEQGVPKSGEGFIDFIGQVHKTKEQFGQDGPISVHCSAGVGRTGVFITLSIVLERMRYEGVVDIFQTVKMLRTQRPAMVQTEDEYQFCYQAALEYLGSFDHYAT
Protocol: The two interacellular catalytic domains (D1D2) of PTPRS were cloned into a pET28a vector and overexpressed in E. coli BL21 and purified as described in Jeon T J, et al. Structure of the Catalytic Domain of Protein Tyrosine Phosphatase Sigma in the Sulfenic Acid Form. Molecules and Cells. 2013; 36(1):55-61. doi:10.1007/s10059-013-0033-x. Enzymatic activity of PTPRS was assayed using a modified version of the Malachite Green Assay (described in Lorenz U. Protein Tyrosine Phosphatase Assays. Current protocols in immunology/edited by John E Coligan. [et al]. 2011; CHAPTER:Unit-11.7. doi:10.1002/0471142735.im1107s93) and the Tyrosine Phosphatase Assay Kit (Promega Coorperation). Unless stated otherwise, standard assays were carried out using 50 nM PTPRS protein in 1× Buffer (10 mM Tris, 5 mM MgCl2, 10 mM NaCl, 0.02% Tween) and Tyr Phosphopeptide as substrate (100 uM for FIG. 1 and 50-1200 uM in FIG. 2). Catalytic domains D1D2 were preincubated with the test compound or control for 15 min in the wells of a 96 well plate before the addition of 100 uM Tyr Phosphopeptide (DADA(pY)LIPQQG).
For IC50 determination, rates normalized relative to uninhibited controls (DMSO) were plotted against compound concentration and fitted using a four-parameter nonlinear regression curve fit ((y=[(A−D) (1+{xC−1}B)−1]+D), (Prism 6.0, Graphpad Software). For mechanism studies and determination of the enyzme's Km and Vmax, data were analyzed using a nonlinear regression fit according to classical Mechaelis-Menten kinetics model Y=Vmax*X/(Km+X) (Prism 6.0, Graphpad Software).

Rac1 [3] = assay: Rac1 signaling in HSCs (BM KSL cells expressing Rac1 GTP, FIG. 1); format: cell-based
Excerpt: (§1) A) CFU-GEMMs produced by TSF media vs. TSF+GJ001 (p=0.001). B) Percentage of BM KSL cells expressing Rac1 GTP (p=0.008). C) Survival of mice irradiated with 750 cGy followed by treatment with DJ001 or vehicle (p=0.0007). D) % BM KSL cells (blue) and % ckit^+sca-1^−lin^− progenitors (gray) at day+21 in irradiated mice.

irradiated mice = assay: Survival and HSC regeneration of irradiated mice; format: in vivo; details: for Survival of irradiated mice: irradiated mice (DJ001: 750 cGy, lethal dose)
Excerpt: as §1

[4] = test system: hematopoietic colony formation; assay: Hematopoietic colony formation; format: cell-based

Structure (SMILES)	Rac1 Activation (Rac1 [1])	IC50 [2] [nM]	further results
O=C(/C=C\Nc1cccc([N+](=O)[O-])c1)c1ccccc1 [DJ001]	yes	1430	Mechanism of inhibition (substrate titration of PTPσ, Vmax and Km) ([2]; substrate titration, Michaelis-Menten fit): classical noncompetitive inhibitor; Rac1 signaling in HSCs (Rac1 [3]): activates Rac1 signaling in HSCs; HSC regeneration in irradiated mice (irradiated mice; irradiated mice): accelerates HSC regeneration in irradiated mice; Survival of irradiated mice (irradiated mice): dramatically increases mice survival following lethal dose irradiation
O=C(/C=C\Nc1cccc(F)c1)c1ccccc1 [DJ002]	no	–	–
O=C(/C=C\Nc1cccc(C(F)(F)F)c1)c1ccccc1 [DJ003]	yes	1060	Survival of irradiated mice (irradiated mice): improves survival of irradiated mice; Hematopoietic colony formation [4]: increases hematopoietic colony formation
Cc1cccc(N/C=C\C(=O)c2ccccc2)c1 [DJ004]	yes	–	–
COc1cccc(N/C=C\C(=O)c2ccccc2)c1 [DJ005]	no	–	–
CC(=O)c1cccc(N/C=C\C(=O)c2ccccc2)c1 [DJ006]	no	3030	–
O=C(/C=C\Nc1cccc(-c2ccccc2)c1)c1ccccc1 [DJ007]	no	–	–
CN(C)c1cccc(N/C=C\C(=O)c2ccccc2)c1 [DJ008]	no	–	–
O=C(/C=C\Nc1cc(F)cc(F)c1)c1ccccc1 [DJ009]	yes	1370	–
Cc1cc(C)cc(N/C=C\C(=O)c2ccccc2)c1 [DJ011]	yes	–	–
COc1cc(N/C=C\C(=O)c2ccccc2)cc(OC)c1 [DJ012]	yes	–	–
O=C(/C=C\Nc1ccccc1)c1ccccc1 [DJ013]	yes	–	–
CC(C)(C)[Si](C)(C)Oc1cccc(N/C=C\C(=O)c2ccccc2)c1 [DJ014]	yes	–	–
O=C(/C=C\Nc1cccc(O)c1)c1ccccc1 [DJ015]	yes	1390	–
CN(C)S(=O)(=O)c1cccc(N/C=C\C(=O)c2ccccc2)c1 [DJ016]	no	–	–
CCCCN/C=C\C(=O)c1ccccc1 [DJ017]	no	–	–
O=C(/C=C\NCc1ccco1)c1ccccc1 [DJ018]	no	–	–
CC(C)(C)N/C=C\C(=O)c1ccccc1 [DJ019]	no	–	–
O=C(c1ccccc1)c1ccccc1Nc1cccc([N+](=O)[O-])c1 [DJ027]	–	910	–
O=C(/C=C\Nc1cc(C(F)(F)F)cc(C(F)(F)F)c1)c1ccccc1 [DJ030]	–	1830	–
Cc1cccc(C(=O)/C=C\Nc2cccc(C(F)(F)F)c2)c1 [DJ033]	–	950	–
